From patent US20040006070A1, “Intraspinal continuous infusion of midazolam hydrochloride for the treatment of pain” (priority 2002, published 2004)
“And” between values parts separate entries of the source, which are not always exact repeats. Equal entries are not always repeated. “Also recorded” adds a separate entry of the source. Structures can show the parent of a compound that is named as a salt.

How the values were obtained:
[1] = Physiological data: indirect blood pressure, pulse, rectal temperature, weight; type: in vivo, sheep
Description: Daily rectal temperatures were taken and any behavioral/motor changes were noted. Gait monitoring will be conducted as described below based on a four-grade scale for the evaluation of behavioral and motor changes. Grade 0: animal standing, sheep is able to rise and ambulate without any difficulty. Grade 1: Shuffling of either rear leg or slight limp; slight distortion of normal spinal axis. Grade 2: Loss of righting reflex in one of the rear legs, sheep able to stand without assistance, but with some difficulty. Grade 3: Inability to maintain standing posture; attempts to help animal stand are unsuccessful.
Indirect blood pressure, pulse recording, pain testing (mechanical stimulus device, cold and warm water baths see description in procedure) and weight were taken on days 1, 3, 7, 15, 22, 29, 36, and 43. Venous blood samples (15 ml drawn from the jugular vein with Vacutainer brand blood collection tubes) for complete blood count, electrolytes, and extended blood chemistry were drawn on days 1, 15, and 43 (mild procedure only light hand restraint necessary).

[2] = rat, single or multiple intrathecal bolus doses for 20 days; cited from earlier work
[3] = Toxicity testing of midazolam in the pig model, closed label (swine data); type: in vivo
Experimental: Another closed label study was performed in pigs. This study was performed in response to implications of possible species-related toxicity reported by researchers in Turkey and France (Malinovsky et al., 1991; Svensson et al., 1995; Erdine et al, 1999). […] Rats were administered single or multiple bolus doses for 20 days. Rabbits were administered bolus injections of 0.1% midazolam (pH 3.3) in 0.3 ml or preservative-free midazolam (pH 3.5) in 0.3 ml for one day or five consecutive days. To further assess the safety of spinally administered midazolam by continuous infusion in a second species, three pigs were instrumented with Medtronic SynchroMed® intrathecal infusion systems. Pigs were administered 15 mg/day (N=2), or saline control (N=1).

[4] = system: neuropathic pain model in the sheep; experiment: Neuropathic pain model in sheep, behavior monitoring (Observer 3.0) with visual analog pain score; type: in vivo; details: for average pain score: sheep #980 Dudley
Description: The neuropathic pain model in the sheep is created by placing four tight ligatures around the median, radial, or ulnar nerve (or a combination thereof) with 0-chromic gut suture. This method produces a chronic painful peripheral mononeuropathy which may be related to those conditions seen in humans with causalgia and reflex sympathetic dystrophy.
To evaluate animal behavior, the Observer 3.0 software (Noldus Information Technology, The Netherlands) was used to aid docmentation of a daily record of multiple traits. […] The behavior was then interpreted into a visual analog pain score (VAS), where 0 represents no pain and 100 represents severe pain.
Approximately three days prior to surgery each sheep will undergo a 15-minute baseline behavior evaluation. The observations made in this evaluation include, a computerized behavior software recording (the Observer) for 15minutes—gait monitoring—and recording of pain perception via visual analog scale-using the Observer. In some animals, recording of vital signs (blood pressure, heart rate, respirations per minute) will be performed using the Observer. Baseline values for pain perception are recorded via the mechanical stimulus device and/or behavior monitoring will also be performed at this time.
The sheep will be observed daily postoperatively. […] Observations of neuropathic pain development include changes in ambulation, alertness, appetite, urination, defecation, herding activity, body temperature and pain behaviors. This daily behavior is recorded utilizing the observer (an observational software system).

[5] = double blinded sheep Chicken Hawk #87, 5 mg/day intrathecal infusion, day (1-43), hydrochloride
[6] = double blinded sheep Elmer Fudd #437, 5 mg/day intrathecal infusion, day (1-43), hydrochloride
[7] = double blinded sheep Leghorn II #815, 15 mg/day intrathecal infusion, day (1-43), hydrochloride
[8] = double blinded sheep Petunia #439, 15 mg/day intrathecal infusion, day (1-43), hydrochloride
[9] = double blinded sheep Porky #402, 5 mg/day intrathecal infusion, day (1-43), hydrochloride
[10] = double blinded sheep Roadrunner #84, 15 mg/day intrathecal infusion, day (1-43), hydrochloride
[11] = open label sheep #457 Tazz, 15 mg/day intrathecal infusion, day (1-43), hydrochloride
[12] = open label sheep #498 Toad, 10 mg/day intrathecal infusion, day (1-43), hydrochloride
[13] = open label sheep #518 Sandy, 5 mg/day intrathecal infusion, day (1-43), hydrochloride
[14] = open label sheep Dot #85, 15 mg/day intrathecal infusion, day (1-43), hydrochloride
[15] = open label sheep Wacko #83, 15 mg/day intrathecal infusion, day (1-43), hydrochloride
[16] = open label sheep Yacko #91, 15 mg/day intrathecal infusion, day (1-43), hydrochloride
[17] = CSF, individual pigs, 15 mg, hydrochloride
[18] = individual pigs, Drug Dose 15 mg, hydrochloride
[19] = pigs, 15 mg/day continuous intrathecal infusion (N=2)
[20] = sheep Rowdy #819, 5 mg, daily values, hydrochloride, on May 29, 2001
[21] = sheep Rowdy #819, 5 mg, daily values, hydrochloride, on May 30, 2001

Cc1ncc2n1-c1ccc(Cl)cc1C(c1ccccc1F)=NC2 [Midazolam, midazolam hydrochloride]
Blood pressure Dia [1, 5]: 62 and 37 and 53 and 51 and 44 and 65 and 69 and 48 | Blood pressure Sys [1, 5]: 112 and 127 and 122 and 132 and 130 and 126 and 151 | Body Temp. Normal 101.3-104.0 [1, 5]: 102.4 and 102.6 and 102.8 and 102.2 and 102.0 | Pulse Rate Normal 55-115 [1, 5]: 75 and 83 and 63 and 101 and 79 and 88 and 84 and 82 | Blood pressure Sys [1, 6]: 122 and 138 and 119 and 131 and 150 and 136 and 139 and 120 | Body Temp. Normal 101.3-104.0 [1, 6]: 102.2 and 102.8 and 101.4 and 102.0 and 101.8 | Pulse Rate Normal 55-115 [1, 6]: 87 and 70 and 80 and 83 and 79 and 73 and 85 | Blood pressure Sys [1, 7]: 130 and 152 and 143 and 160 and 138 and 145 | Body Temp. Normal 101.3-104.0 [1, 7]: 104.2 and 102.4 and 102.8 and 102.2 and 102.6 | Pulse Rate Normal 55-115 [1, 7]: 111 and 144 and 88 and 125 and 121 and 97 and 89 and 87 | Blood pressure Dia [1, 8]: 34 and 49 and 44 and 32 and 26 and 45 | Blood pressure Sys [1, 8]: 133 and 152 and 126 and 132 and 123 and 114 and 120 and 142 | Body Temp. Normal 101.3-104.0 [1, 8]: 102.0 and 102.8 and 103.0 and 101.0 and 102.4 | Pulse Rate Normal 55-115 [1, 8]: 89 and 72 and 74 and 69 and 66 and 63 and 71 and 90 | Blood pressure Dia [1, 9]: 65 and 70 and 42 and 67 and 55 and 68 and 41 and 40 | Blood pressure Sys [1, 9]: 148 and 107 and 140 and 133 and 113 and 135 and 134 and 147 | Body Temp. Normal 101.3-104.0 [1, 9]: 102.0 and 102.6 and 101.0 and 101.2 and 102.2 | Pulse Rate Normal 55-115 [1, 9]: 87 and 99 and 89 and 100 and 90 and 86 and 108 | Blood pressure Dia [1, 10]: 75 and 77 and 49 and 42 and 50 and 51 and 40 | Blood pressure Sys [1, 10]: 137 and 124 and 132 and 116 and 144 | Body Temp. Normal 101.3-104.0 [1, 10]: 101.8 and 101.6 and 102.2 and 104.0 and 102.4 and 102.0 and 102.6 | Pulse Rate Normal 55-115 [1, 10]: 90 and 97 and 104 and 78 and 94 and 130 and 124 and 77 | Blood pressure Dia [1, 11]: 83 and 71 and 68 and 70 and 73 and 88 | Blood pressure sys [1, 11]: 151 and 154 and 145 and 147 and 135 | Body Temp. Normal 101.3-104.0 [1, 11]: 100.8 and 102.2 and 103.0 and 102.0 | Pulse Rate Normal 55-115 [1, 11]: 138 and 77 and 74 and 76 and 79 and 82 | Blood pressure Dia [1, 12]: 98 and 73 and 66 and 109 and 71 and 59 and 58 | Blood pressure Sys [1, 12]: 177 and 143 and 136 and 156 and 153 and 118 and 149 | Body Temp. Normal 101.3-104.0 [1, 12]: 102.0 and 104.2 and 102.8 and 102.4 and 101.8 and 103.0 and 103.2 | Pulse Rate Normal 55-115 [1, 12]: 98 and 79 and 95 and 77 and 104 and 67 and 89 and 78 | Blood pressure Sys [1, 13]: 180 and 150 and 141 and 152 and 147 and 169 and 164 and 185 | Body Temp. Normal 101.3-104.0 [1, 13]: 102.0 and 101.0 and 101.8 and 101.6 and 102.8 | Blood pressure Dia [1, 14]: 68 and 49 and 67 and 59 and 53 and 77 and 57 and 69 | Blood pressure Sys [1, 14]: 128 and 109 and 110 and 133 and 130 and 120 and 155 | Pulse Rate Normal 55-115 [1, 14]: 92 and 89 and 86 and 117 and 85 and 72 and 66 and 71 | Blood pressure Dia [1, 15]: 60 and 45 and 47 and 42 and 51 and 66 and 73 and 70 | Blood pressure Sys [1, 15]: 148 and 166 and 130 and 106 and 102 and 132 and 163 and 128 | Body Temp. Normal 101.3-104.0 [1, 15]: 102.0 and 102.4 and 102.6 | Pulse Rate Normal 55-115 [1, 15]: 104 and 98 and 91 and 92 and 99 and 84 and 75 | Blood pressure Sys [1, 16]: 138 and 143 and 156 and 110 and 151 and 160 and 149 | Pulse Rate Normal 55-115 [1, 16]: 115 and 80 and 84 and 86 and 72 and 82 and 66 and 69 | Blood pre-assure ([1]; sheep Rowdy #819, 10 mg): 136/75 | Pulse ([1]; sheep Rowdy #819, 10 mg): 122 | Blood pre-assure ([1]; sheep Rowdy #819, 15 mg): 143/77 | Pulse ([1]; sheep Rowdy #819, 15 mg): 94 | Respirations per minute ([1]; sheep Rowdy #819, 15 mg): 40 per minute | neurotoxicity [2]: neurotoxicity | Routine Cultures Post Mortum ([3]; CSF, individual pigs, 15 mg, cell wraps 'No' / 'Growth'): No | Glucose Post Mortum [3, 17]: 11 mg/dL and 31 mg/dL | Gross Exam Post Mortum [3, 17]: Colorless; also recorded: cloudy; also recorded: clear | RBC Count Post Mortum [3, 17]: 1,350 /ul and 0 /ul | Total Protein Post Mortum [3, 17]: 73 mg/dL and 39 mg/dL | WBC Count Post Mortum [3, 17]: 888 µL⁻¹ and 117 µL⁻¹ | clinical symptoms ([3]; individual pigs, Drug Dose 15 mg): none | Final Weight [3, 18]: 147 and 170 | Histopathological Changes [3, 18]: Most foreign body reaction in all the pigs; also recorded: The least foreign body reaction in all the pigs. The spinal reaction | clinical or gross changes at necropsy [3, 19]: No clinical or gross changes at necropsy were observed | histology, toxicity related to the infusion [3, 19]: no evidence of toxicity related to the midazolam infusion | VAS score (0 no pain, 100 severe pain) ([4]; average on most days, intrathecal 3 to 6 mg/day, saline pretreatment 60 to 95): approximately 30 | VAS score, average ([4]; first sheep (Rowdy), 5 mg/day): 30% | analgesia at higher doses ([4]; first sheep (Rowdy), after dose escalation to 15 mg/day): less analgesia | analgesic activity against neuropathic pain ([4]; intrathecal up to 5 mg/day): had analgesic activity against neuropathic pain | average pain score ([4]; 3 mg/day for 13 days): 32% | average pain score ([4]; 6 mg/day, remainder of the study): 35% | average pain score ([4]; reinstituted 3 mg/day escalated to 5 mg/day over 7 days): 65% | Other behavior: Observe operated leg ([4]; sheep Rowdy #819, 5 mg): 0.56% | Eating [4, 20]: 69.88% | Holding operated leg off the ground [4, 20]: 5.77% | Holding unoperated leg off the ground [4, 20]: 0.90% | Walking [4, 20]: 5.07% | Eating [4, 21]: 83.94% | Holding operated leg off the ground [4, 21]: 6.24% | Holding unoperated leg off the ground [4, 21]: 0.56% | Walking [4, 21]: 4.22% | Other behavior: Eating lying down ([4]; sheep Rowdy #819, 10 mg): 0.29% | Eating ([4]; sheep Rowdy #819, 15 mg): 3.29% | Holding operated leg off the ground ([4]; sheep Rowdy #819, 15 mg): 8.55% | Holding unoperated leg off the ground ([4]; sheep Rowdy #819, 15 mg): 0.81% | Other behavior: Bleating ([4]; sheep Rowdy #819, 15 mg): 0.86% | Other behavior: Pulling wool ([4]; sheep Rowdy #819, 15 mg): 1.11% | Other behavior: Standing ruminating ([4]; sheep Rowdy #819, 15 mg): 70.19% | Pain Score ([4]; sheep Rowdy #819, 15 mg): 40 | Standing ([4]; sheep Rowdy #819, 15 mg): 13.79% | Walking ([4]; sheep Rowdy #819, 15 mg): 1.40%
